Reference: paper PMC3305904, “N^β-methylation changes the recognition pattern of aza-β^3-amino acid containing peptidomimetic substrates by protein kinase A” (Organic and Medicinal Chemistry Letters, 2011)
Where two headings read alike, the source gives them in different places.

What was measured:
[1] = molecular target: T1, PKA catalytic subunit (Homo sapiens, UniProt P17612); settings: parent peptide, cited from earlier work
Method: Table 1 Phosphorylation of N^β-methylated peptidomimetic substrates by PKA catalytic subunit at ATP concentration 100 μM, 30°C, 50 mM TRIS/HCl, pH 7 | column: Km (μM); 10^2 kcat (μmole mg^-1 s^-1); 10^2 kII (L mg^-1 s^-1)

[2] = molecular target: T1, PKA catalytic subunit; assay: PKA-catalyzed phosphorylation of peptide/peptidomimetic substrates, [γ-32P]ATP, phosphocellulose paper binding; assay type: biochemical; settings: ATP 100 μM, 30°C, 50 mM TRIS/HCl, pH 7; for 10^2 kcat: Michaelis-Menten fit, value is kcat multiplied by 10^2; for 10^2 kII (second order rate constant): from the initial linear part of the Michaelis-Menten plot, value is kII multiplied by 10^2; for Km: substrate phosphorylation by PKA catalytic subunit, Michaelis-Menten fit of initial velocities, substrate concentration varied
Method: The phosphorylation reactions followed the classical Michaelis-Menten rate equation and therefore all substrates were characterized by the Km and kcat values, which correspond to the constant ATP concentration of 0.1 mM. The initial linear part of the Mihaelis-Menten plot was used for the calculation of the second order rate constants kII as described in [10] and these values are also listed in Table 1. Agreement between the parameters kII and values of the ratio of kcat/Km for substrates confirms the applicability of the Michelis-Menten rate equation for the description of the kinetic data.
The method of kinetic measurements was described in our previous article and was based on utilizing the radioactive ATP with [^32P]phosphate in γ-position. The phosphorylated substrates were bound onto Whatman phosphocellulose paper and the paper-bound radioactivity was counted. Linear plots between filter-bound radioactivity and time were used for calculating the initial velocity values of the phosphorylation reaction, which were thereafter processed by the classical Michaelis-Menten rate equation. Kinetic experiments were made at constant ATP concentration (100 μM) and the Km and kcat values were calculated for peptidomimetic substrates, concentrations of which were varied in the reaction mixture.

| Substance | Km ([1]; phosphorylation by PKA) | 10^2 kII (second order rate constant) ([1]; value is kII multiplied by 10^2) | 10^2 kcat ([1]; value is kcat multiplied by 10^2) | 10^2 kcat [2] | 10^2 kII (second order rate constant) [2] | Km [2] |
| --- | --- | --- | --- | --- | --- | --- |
| RRASVA | 11.1 ± 3.5 µM | 3.2 ± 0.1 L mg^-1 s^-1 | 36 ± 3 μmole mg^-1 s^-1 |  |  |  |
| RRASVA [I, RRASVA analog with one N^β-Me-aza-β^3-amino acid residue; likely the N-terminal Arg] |  |  |  | 24.4 ± 1.5 μmole mg^-1 s^-1 | 0.098 ± 0.010 L mg^-1 s^-1 | 209 ± 24 µM |
| RRASVA [II, RRASVA analog with one N^β-Me-aza-β^3-amino acid residue; likely the second Arg] |  |  |  | 11.9 ± 1.0 μmole mg^-1 s^-1 | 0.11 ± 0.07 L mg^-1 s^-1 | 79 ± 18 µM |
| RRASVA [III, RRASVA analog with one N^β-Me-aza-β^3-amino acid residue; likely Ala at position -1] |  |  |  | 5.5 ± 0.3 μmole mg^-1 s^-1 | 0.034 ± 0.005 L mg^-1 s^-1 | 91 ± 15 µM |
| RRASVA [IV, RRASVA analog with one N^β-Me-aza-β^3-amino acid residue; likely Val] |  |  |  | 16 ± 2.0 μmole mg^-1 s^-1 | 0.12 ± 0.02 L mg^-1 s^-1 | 118 ± 36 µM |
| RRASVA [RRASVA analog with one N^β-Me-aza-β^3-amino acid residue; likely the C-terminal Ala] |  |  |  | 5.0 ± 0.4 μmole mg^-1 s^-1 | 0.090 ± 0.015 L mg^-1 s^-1 | 57 ± 17 µM |
